Paper PMC3691235, “Discovery of a Novel Dual Fungal CYP51/Human 5-Lipoxygenase Inhibitor: Implications for Anti-Fungal Therapy” (PLoS ONE, 2013)
Read-outs that look alike come from different tables or passages of the source.

Columns and labels:
human COX-2 = molecular target: T1, human COX-2 (Homo sapiens, UniProt P35354); experiment: Cyclooxygenase assay (oxygen electrode), COX-2; assay type: biochemical; conditions: 100 µM AA, pH 8.0, 37°C, oxygen consumption
T1 construct: purchased Cayman chemical 60122
T1 sequence (P35354 18-604): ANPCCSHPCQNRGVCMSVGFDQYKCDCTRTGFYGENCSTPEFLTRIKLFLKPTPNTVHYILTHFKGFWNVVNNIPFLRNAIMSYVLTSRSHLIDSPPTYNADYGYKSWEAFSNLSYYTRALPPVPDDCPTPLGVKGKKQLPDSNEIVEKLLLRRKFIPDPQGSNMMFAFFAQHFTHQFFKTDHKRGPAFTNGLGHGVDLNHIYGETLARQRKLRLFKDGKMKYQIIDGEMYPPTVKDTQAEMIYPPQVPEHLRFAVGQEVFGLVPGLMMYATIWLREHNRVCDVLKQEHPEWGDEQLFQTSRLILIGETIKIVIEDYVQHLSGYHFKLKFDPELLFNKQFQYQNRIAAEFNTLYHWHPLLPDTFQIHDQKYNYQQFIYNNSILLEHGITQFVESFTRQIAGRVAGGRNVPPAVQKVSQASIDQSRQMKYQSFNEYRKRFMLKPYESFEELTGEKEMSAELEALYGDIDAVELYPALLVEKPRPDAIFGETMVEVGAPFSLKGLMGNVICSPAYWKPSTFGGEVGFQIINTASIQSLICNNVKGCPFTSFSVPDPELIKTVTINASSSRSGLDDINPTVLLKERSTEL
Method: Ovine COX-1 (Cat. No. 60100) and human COX-2 (Cat. No. 60122) were purchased from Cayman chemical. Approximately 2 µg of either COX-1 or COX-2 were added to buffer containing 100 µM AA, 0.1 M Tris-HCl buffer (pH 8.0), 5 mM EDTA, 2 mM phenol and 1 µM hematin at 37°C. Data was collected using a Hansatech DW1 oxygen electrode chamber, as described before. Inhibitor or vehicle were mixed with the respective COX in buffer within the electrode cell, the reaction was initiated by the addition of AA, followed by monitoring of rate of oxygen consumption. Ibuprofen, aspirin and indomethacin, and the carrier solvent, DMSO, were used as positive and negative controls, respectively.

CaCYP51 = molecular target: T2, CaCYP51 (Candida albicans, UniProt P10613); experiment: CYP51 reconstitution assay, CaCYP51; assay type: biochemical
T2 construct: made in house; host or cells: E. coli
T2 sequence (P10613 whole entry): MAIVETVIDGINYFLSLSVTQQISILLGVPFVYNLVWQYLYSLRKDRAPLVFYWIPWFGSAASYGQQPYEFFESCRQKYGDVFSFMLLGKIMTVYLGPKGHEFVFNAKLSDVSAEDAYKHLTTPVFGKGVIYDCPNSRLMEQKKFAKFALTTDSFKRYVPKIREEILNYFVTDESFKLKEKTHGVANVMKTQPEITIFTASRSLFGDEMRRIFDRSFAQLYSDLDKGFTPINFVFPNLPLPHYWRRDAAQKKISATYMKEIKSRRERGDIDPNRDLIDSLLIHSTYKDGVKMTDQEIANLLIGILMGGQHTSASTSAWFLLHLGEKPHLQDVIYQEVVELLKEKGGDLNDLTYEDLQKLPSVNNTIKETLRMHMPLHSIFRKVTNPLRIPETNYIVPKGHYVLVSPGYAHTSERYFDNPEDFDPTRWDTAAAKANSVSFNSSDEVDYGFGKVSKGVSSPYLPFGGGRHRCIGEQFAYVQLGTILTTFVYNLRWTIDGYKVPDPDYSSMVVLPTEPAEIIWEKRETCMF
Method: (§1) Azole antifungal agents were added in 5 µL DMSO followed by incubation for 5 minutes at 37°C prior to assay initiation with 4 mM β-NADPHNa4, with shaking for a further 10 minutes at 37°C. Sterol metabolites were recovered by extraction with ethyl acetate followed by derivatization with N,O-bis(trimethylsilyl)trifluoroacetamide and […] prior to analysis by gas chromatography mass spectrometry.

HsCYP51 = molecular target: T3, HsCYP51 (Homo sapiens, UniProt Q16850); experiment: CYP51 reconstitution assay, HsCYP51; assay type: biochemical; conditions: for IC50: 0.3 µM HsCYP51, 50 µM lanosterol
T3 construct: made in house; host or cells: E. coli
T3 sequence (Q16850 1-509): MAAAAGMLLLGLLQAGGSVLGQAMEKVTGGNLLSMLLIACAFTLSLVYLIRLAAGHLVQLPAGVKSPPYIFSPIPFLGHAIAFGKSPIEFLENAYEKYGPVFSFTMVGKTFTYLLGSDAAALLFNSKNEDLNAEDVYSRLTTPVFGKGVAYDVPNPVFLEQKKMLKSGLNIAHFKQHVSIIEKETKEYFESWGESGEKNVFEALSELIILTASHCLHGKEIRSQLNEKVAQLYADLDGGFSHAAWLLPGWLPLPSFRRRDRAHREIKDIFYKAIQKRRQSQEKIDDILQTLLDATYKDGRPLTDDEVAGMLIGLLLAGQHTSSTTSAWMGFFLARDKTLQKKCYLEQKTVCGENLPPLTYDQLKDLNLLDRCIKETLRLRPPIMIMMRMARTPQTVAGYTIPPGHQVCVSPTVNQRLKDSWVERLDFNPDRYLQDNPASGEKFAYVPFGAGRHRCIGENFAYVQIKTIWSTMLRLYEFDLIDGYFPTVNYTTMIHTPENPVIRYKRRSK
Method: as §1

[1] = molecular target: T4, Homo sapiens CYP51 (HsCYP51) (Homo sapiens, UniProt Q16850); experiment: Azole binding to HsCYP51 (type II difference spectra titration); conditions: for Kd: 5 µM HsCYP51, Morrison equation
T4 construct: made in house; host or cells: E. coli
T4 sequence (Q16850 1-509): T3 sequence (Q16850 1-509)
Method: (§2) Native cytochrome P450 concentrations were determined by reduced carbon monoxide difference spectra, based on an extinction coefficient of 91 mM^−1 cm^−1 [42], [43]. Binding of azole antifungal agents to 5 µM CaCYP51 and 5 µM HsCYP51 were performed as previously described, [44], using 0.25 and 0.5 mg mL^−1 stock solutions of ketoconazole and ketaminazole in DMSO. Azole antifungal agents were progressively titrated against the CYP51 protein in 0.1 M Tris-HCl (pH 8.1) and 25% (wt/vol) glycerol, with the spectral difference determined after each incremental addition of azole. The dissociation constant (Kd) of the enzyme-azole complex was determined by nonlinear regression (Levenberg-Marquardt algorithm) of ΔA peak-trough against azole concentration using a rearrangement of the Morrison equation [45] and fitted by the computer program ProFit 6.1.12 (QuantumSoft, Zurich, Switzerland).

[2] = molecular target: T5, C. albicans CYP51 (CaCYP51) (Candida albicans, UniProt P10613); experiment: biochemical; assay type: binding
T5 construct: made in house; host or cells: E. coli
T5 sequence (P10613 whole entry): as the sequence (P10613 whole entry) above
Method: as §2

[3] = molecular target: T6, Human leukocyte 5-lipoxygenase (Homo sapiens, UniProt P09917); conditions: [13], cited from earlier work
T6 construct: made in house
T6 sequence (P09917 1-674): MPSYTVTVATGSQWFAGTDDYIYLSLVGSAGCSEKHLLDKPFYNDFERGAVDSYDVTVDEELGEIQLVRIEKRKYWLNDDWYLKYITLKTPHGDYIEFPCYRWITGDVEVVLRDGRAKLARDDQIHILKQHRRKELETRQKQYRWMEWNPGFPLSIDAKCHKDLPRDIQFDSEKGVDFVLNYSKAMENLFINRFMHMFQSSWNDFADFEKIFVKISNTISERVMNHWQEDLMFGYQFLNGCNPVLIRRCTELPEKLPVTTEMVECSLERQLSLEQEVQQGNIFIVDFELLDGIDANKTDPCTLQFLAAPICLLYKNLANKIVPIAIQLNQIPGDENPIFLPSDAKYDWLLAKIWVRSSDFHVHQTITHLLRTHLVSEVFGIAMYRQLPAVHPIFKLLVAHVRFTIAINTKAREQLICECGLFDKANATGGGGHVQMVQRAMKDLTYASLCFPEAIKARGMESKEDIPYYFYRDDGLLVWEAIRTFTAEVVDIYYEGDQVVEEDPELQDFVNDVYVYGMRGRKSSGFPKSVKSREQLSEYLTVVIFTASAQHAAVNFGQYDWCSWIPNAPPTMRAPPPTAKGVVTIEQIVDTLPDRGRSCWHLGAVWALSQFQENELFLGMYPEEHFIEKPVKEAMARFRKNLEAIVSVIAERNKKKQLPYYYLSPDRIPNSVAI

**Q.** For `CC(C)(C)OC(=O)N1CCN(c2ccc(NCc3ccc(-c4ccc(C#N)cc4)o3)cc2)CC1` [Compound 1], which IC50 (human COX-2) is on record?
**A.** > 150000 nM

**Q.** For `CC(=O)N1CCN(c2ccc(NCc3ccc(-c4cccc(Cl)c4)o3)cc2)CC1` [Compound 13], which IC50 (human COX-2) is on record?
**A.** > 150000 nM

**Q.** For `Cc1cc(C2CCCCC2)n(O)c(=O)c1` [ciclopirox, reference compound], which IC50 (human COX-2) is on record?
**A.** > 150000 nM

**Q.** Which IC50 (CaCYP51; 1 µM CaCYP51, 50 µM lanosterol, read-out: CaCYP51 IC50) does the source give for `CC(=O)N1CCN(c2ccc(NCC3COC(Cn4ccnc4)(c4ccc(Cl)cc4Cl)O3)cc2)CC1` (centres unmarked) [ketaminazole (16), ketaminazole] here?
**A.** ~900 nM

**Q.** What about the CYP51 activity retained (CaCYP51; CaCYP51, at 4 µM compound) of the same compound?
**A.** ~15%

**Q.** What about the IC50 (HsCYP51) of the same compound?
**A.** ~16000 nM

**Q.** And the remaining activity at 155 µM (HsCYP51; HsCYP51, at 155 µM compound)?
**A.** ~30%

**Q.** What about the “fold higher IC50 over ketoconazole with HsCYP51” value (HsCYP51; ratio of IC50 values) of the same compound?
**A.** 3 fold

**Q.** What about the IC50 (human COX-2) of the same compound?
**A.** > 150000 nM

**Q.** What about the Kd [1] of the same compound?
**A.** 731 ± 69 nM

**Q.** What about the “selectivity for yeast CYP51 relative to human CYP51” value ([1]; yeast vs human CYP51) of the same compound?
**A.** 17 fold

**Q.** And the Kd ([2]; 5 µM CaCYP51, Morrison equation, read-out: Kd with CaCYP51)?
**A.** 43 ± 5 nM

**Q.** What about the IC50 ([2]; in vitro) of the same compound?
**A.** 43 nM

**Q.** Which IC50 (CaCYP51) does the source give for `CC(=O)N1CCN(c2ccc(OCC3COC(Cn4ccnc4)(c4ccc(Cl)cc4Cl)O3)cc2)CC1` (centres unmarked) [ketoconazole, reference compound] here?
**A.** ~500 nM

**Q.** And the IC50 (HsCYP51)?
**A.** ~5000 nM

**Q.** And the “HsCYP51 activity, in words” value (HsCYP51; at 95 µM compound)?
**A.** inactivated

**Q.** And the IC50 ([3]; read-out: 5-LOX IC50, ref [12])?
**A.** > 50000 nM

**Q.** And the IC50 (human COX-2)?
**A.** > 150000 nM

**Q.** What about the Kd [1] of the same compound?
**A.** 42 ± 16 nM

**Q.** And the “fold tighter binding to HsCYP51 compared to ketaminazole (16)” value ([1]; ratio of Kd values)?
**A.** 17 fold

**Q.** What about the Kd [2] of the same compound?
**A.** 27 ± 5 nM

**Q.** What about the “fold difference in binding to CaCYP51 compared to ketaminazole (16)” value ([2]; ratio of Kd values) of the same compound?
**A.** 1.6 fold

**Q.** For `CC[C@](O)(c1nnc(NCc2ccc3c(-c4ccc(F)cc4)cc(=O)oc3c2)o1)C(F)(F)F` [setileuton, reference compound], which IC50 ([3]; ref [2], read-out: 5-LOX IC50, literature value) is on record?
**A.** 45 ± 10 nM
